Measurements from US11827627B2, “N-(hydroxyalkyl (hetero)aryl) tetrahydrofuran carboxamides as modulators of sodium channels” (VERTEX PHARMACEUTICALS INCORPORATED, priority 2021, dated 2023).

target: human NaV 1.8 (Homo sapiens, UniProt Q9Y5Y9); assay: E-VIPR assay detecting and measuring NaV inhibition properties; type: cell-based; conditions: HEK cells expressing a truncated form of human NaV 1.8; electrical stimulation, membrane potential FRET dyes
Source text: E-VIPR Assay Detecting and Measuring NaV Inhibition Properties
Sodium ion channels are voltage-dependent proteins that can be activated by inducing membrane voltage changes by applying electric fields. The electrical stimulation instrument and methods of use, referred to as E-VIPR, are described in International Publication No. WO 2002/008748 A3 and C.-J. Huang et al. Characterization of voltage-gated sodium channel blockers by electrical stimulation and fluorescence detection of membrane potential, 24 Nature Biotech. 439-46 (2006), both of which are incorporated by reference in their entirety. The instrument comprises a microtiter plate handler, an optical system for exciting the coumarin dye while simultaneously recording the coumarin and oxonol emissions, a waveform generator, a current- or voltage-controlled amplifier, and parallel electrode pairs that are inserted into assay plate wells. Under integrated computer control, this instrument passes user-programmed electrical stimulus protocols to cells within the wells of the microtiter plate.
16-20 hours prior to running the assay on E-VIPR, HEK cells expressing a truncated form of human NaV 1.8 with full channel activity were seeded into microtiter 384-well plates, pre-coated with matrigel, at a density of 25,000 cells per well. 2.5-5% KIR2.1 Bacmam virus was added to the final cell suspension before seeding into cell plates. HEK cells were grown in Dulbecco's Modified Eagle's Medium (DMEM) supplemented with 10% FBS (Fetal Bovine Serum, qualified; Sigma #F4135), 1% NEAA (Non-Essential Amino Acids, Gibco #11140), 1% HEPES (Gibco #15630), 1% Pen-Strep (Penicillin-Streptomycin; Gibco #15140) and 5 μg/ml Blasticidin (Gibco #R210-01). Cells were expanded in vented cap cell culture flasks, with 90-95% humidity and 5% CO2.
Reagents and Stock Solutions:
100 mg/mL Pluronic F-127 (Sigma #P2443), in dry DMSO
Compound Plates: Corning 384-well Polypropylene Round Bottom #3656
Cell Plates: 384-well tissue culture treated plates (Greiner #781091-2B)
2.5-5% KIR 2.1 Bacmam virus (produced in-house), prepared as described in Section 3.3 of J. A. Fornwald et al., Gene Expression in Mammalian Cells Using BacMam, a Modified Baculovirus System, 1350 Methods in Molecular Biology 95-116 (2016), the entire contents of which are incorporated by reference. The concentration used can be dependent on viral titer of each batch.
5 mM DiSBAC6(3), a voltage sensitive oxonol acceptor (CAS number 169211-44-3; 5-[3-(1,3-dihexylhexahydro-4,6-dioxo-2-thioxo-5-pyrimidinyl)-2-propen-1-ylidene]-1,3-dihexyldihydro-2-thioxo-4,6(1H,5H)-pyrimidinedione), in dry DMSO. The preparation of DiSBAC6(3) is analogous to that of DiSBAC4(3) as described in Voltage Sensing by Fluorescence Resonance Energy Transfer in Single Cells, Gonzalez, J. E. and Tsien, R. Y. (1995) Biophys. J. 69, 1272-1280.
5 mM CC2-DMPE, a commercially available membrane-bound coumarin phospholipid FRET donor (ThermoFisher Scientific catalog number K1017, CAS number 393782-57-5; tetradecanoic acid, 1,1′-[(1R)-1-[8-(6-chloro-7-hydroxy-2-oxo-2H-1-benzopyran-3-yl)-3-hydroxy-3-oxido-8-oxo-2,4-dioxa-7-aza-3-phosphaoct-1-yl]-1,2-ethanediyl]ester) was prepared in dry DMSO. See also, Improved indicators of cell membrane potential that use fluorescence resonance energy transfer, Gonzalez, J. E. and Tsien, R. Y. (1997) Chem. Biol. 4, 269-277.
Voltage Assay Background Suppression Compound (VABSC-1) is prepared in H2O (89-363 mM, range used to maintain solubility)
Human Serum (HS, Millipore #S1P1-01KL, or Sigma SLBR5469V and SLBR5470V as a 50%/50% mixture, for 25% assay final concentration)
Bath 1 Buffer: • Sodium Chloride 160 mM (9.35 g/L), Potassium Chloride, 4.5 mM (0.335 g/L), Glucose 10 mM (1.8 g/L), Magnesium Chloride (Anhydrous) 1 mM (0.095 g/L), Calcium Chloride 2 mM (0.222 g/L), HEPES 10 mM (2.38 g/L) in water. […]

Sequence of human NaV 1.8 (Q9Y5Y9 126-1722 limits assumed): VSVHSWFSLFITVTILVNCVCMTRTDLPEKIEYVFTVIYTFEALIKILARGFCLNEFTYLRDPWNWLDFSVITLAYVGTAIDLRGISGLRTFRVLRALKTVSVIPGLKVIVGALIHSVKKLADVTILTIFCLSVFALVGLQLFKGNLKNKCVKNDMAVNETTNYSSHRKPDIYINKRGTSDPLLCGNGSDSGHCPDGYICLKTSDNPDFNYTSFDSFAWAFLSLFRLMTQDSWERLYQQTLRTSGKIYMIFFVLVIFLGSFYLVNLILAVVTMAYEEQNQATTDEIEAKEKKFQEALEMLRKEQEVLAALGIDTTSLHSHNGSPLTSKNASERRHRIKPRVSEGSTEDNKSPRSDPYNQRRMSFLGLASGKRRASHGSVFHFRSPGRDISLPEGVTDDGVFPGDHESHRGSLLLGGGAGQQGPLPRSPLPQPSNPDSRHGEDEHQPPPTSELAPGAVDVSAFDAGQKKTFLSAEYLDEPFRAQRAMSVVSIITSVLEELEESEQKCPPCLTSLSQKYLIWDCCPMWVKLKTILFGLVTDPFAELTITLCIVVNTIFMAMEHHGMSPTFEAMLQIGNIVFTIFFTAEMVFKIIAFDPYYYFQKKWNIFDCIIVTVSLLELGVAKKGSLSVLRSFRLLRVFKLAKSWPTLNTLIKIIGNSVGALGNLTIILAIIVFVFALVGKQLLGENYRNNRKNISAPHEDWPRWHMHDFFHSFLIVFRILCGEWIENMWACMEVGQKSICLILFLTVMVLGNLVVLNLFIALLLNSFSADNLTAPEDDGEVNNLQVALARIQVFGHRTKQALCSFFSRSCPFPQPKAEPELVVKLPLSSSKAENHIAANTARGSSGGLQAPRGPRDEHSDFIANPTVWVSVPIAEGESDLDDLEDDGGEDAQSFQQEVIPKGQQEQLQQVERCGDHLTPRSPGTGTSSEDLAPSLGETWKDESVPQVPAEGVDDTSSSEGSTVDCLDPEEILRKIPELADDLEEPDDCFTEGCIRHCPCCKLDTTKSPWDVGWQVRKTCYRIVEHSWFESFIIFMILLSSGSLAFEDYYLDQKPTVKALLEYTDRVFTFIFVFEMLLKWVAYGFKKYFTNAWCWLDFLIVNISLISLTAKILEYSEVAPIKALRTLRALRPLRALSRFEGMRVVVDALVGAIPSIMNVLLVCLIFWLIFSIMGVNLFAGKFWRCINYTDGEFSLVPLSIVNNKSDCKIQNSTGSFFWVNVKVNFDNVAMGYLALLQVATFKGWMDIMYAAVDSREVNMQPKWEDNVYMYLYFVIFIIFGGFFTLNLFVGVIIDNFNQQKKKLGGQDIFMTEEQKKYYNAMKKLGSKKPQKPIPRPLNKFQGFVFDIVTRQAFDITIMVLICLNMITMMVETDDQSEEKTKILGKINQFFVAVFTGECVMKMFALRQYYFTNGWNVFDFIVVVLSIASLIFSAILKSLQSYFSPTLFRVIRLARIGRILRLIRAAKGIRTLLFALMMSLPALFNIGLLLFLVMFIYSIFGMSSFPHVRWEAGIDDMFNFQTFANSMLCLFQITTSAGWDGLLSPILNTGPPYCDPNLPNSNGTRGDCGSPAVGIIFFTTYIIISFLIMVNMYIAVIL

IC50 [nM]	SMILES
≥ 1000	COc1c(C2C(C(=O)Nc3ccc(C(O)CO)nc3)OC(C)(C(F)(F)F)C2C)ccc(F)c1C (single isomer, unassigned) [Compound 44, rel-(2S,3R,4R,5S)-N-(6-((S*)-1,2-dihydroxyethyl)138yridine-3-yl)-3-(4-fluoro-2-methoxy-3-methylphenyl)-4,5-dimethyl-5-(trifluoromethyl)tetrahydrofuran-2-carboxamide]
≥ 1000	COc1c(C2C(C(=O)Nc3ccc(CO)nc3)OC(C)(C(F)(F)F)C2C)ccc(C(F)F)c1F (single isomer, unassigned) [Compound 90]
10 to 100	COc1c([C@H]2[C@H](C(=O)Nc3ccc([C@H](O)CO)nc3)O[C@@](C)(C(F)(F)F)[C@H]2C)ccc(F)c1C (single isomer, unassigned) [Compound 45, rel-(2R,3S,4S,5R)-N-(6-((S*)-1,2-dihydroxyethyl)pyridin-3-yl)-3-(4-fluoro-2-methoxy-3-methylphenyl)-4,5-dimethyl-5-(trifluoromethyl)tetrahydrofuran-2-carboxamide]
< 10	COc1c([C@H]2[C@H](C(=O)Nc3ccc([C@@H](O)CO)[n+]([O-])c3)O[C@@](C)(C(F)(F)F)[C@H]2C)ccc(F)c1F [Compound 60, 5-((2R,3S,4S,5R)-3-(3,4-difluoro-2-methoxyphenyl)-4,5-dimethyl-5-(trifluoromethyl)tetrahydrofuran-2-carboxamido)-2-((R)-1,2-dihydroxyethyl)pyridine 1-oxide]
≥ 1000	COc1c(C2C(C(=O)Nc3ccc(CO)nc3)OC(C)(C(F)(F)F)C2C)ccc(F)c1C(F)F (single isomer, unassigned) [Compound 52]
≥ 1000	COc1c(C2C(C(=O)Nc3ccc(CO)nc3)OC(C)(C(F)(F)F)C2C)cccc1C(F)(F)F (single isomer, unassigned) [Compound 81]
< 10	CCOc1c([C@H]2[C@H](C(=O)Nc3ccc([C@H](O)CO)nc3)O[C@@](C)(C(F)(F)F)[C@H]2C)ccc(F)c1F [Compound 6, (2R,3S,4S,5R)-N-(6-((S)-1,2-dihydroxyethyl)pyridin-3-yl)-3-(2-ethoxy-3,4-difluorophenyl)-4,5-dimethyl-5-(trifluoromethyl)tetrahydrofuran-2-carboxamide]
100 to 1000	COc1c([C@H]2[C@H](C(=O)Nc3cnc(C(O)CO)nc3)O[C@@](C)(C(F)(F)F)[C@H]2C)cccc1C(F)(F)F (single isomer, unassigned) [Compound 71]
< 10	COc1c([C@H]2[C@H](C(=O)Nc3ccc([C@H](O)CO)nc3)O[C@@](C)(C(F)(F)F)[C@H]2C)ccc(F)c1F (single isomer, unassigned) [Compound 2]
≥ 1000	C[C@@]1(C(F)(F)F)C[C@H](c2ccc(OC(F)(F)F)cc2Cl)[C@@H](C(=O)Nc2ccc([C@@H](O)CO)nc2)O1 (single isomer, unassigned) [Compound 61, rel-(2S,3R,5S)-3-(2-chloro-4-(trifluoromethoxy)phenyl)-N-(6-((R*)-1,2-dihydroxyethyl)pyridin-3-yl)-5-methyl-5-(trifluoromethyl)tetrahydrofuran-2-carboxamide]
100 to 1000	C[C@H]1[C@@H](c2ccc(F)c(F)c2O)[C@H](C(=O)Nc2ccc([C@@H](O)CO)nc2)O[C@@]1(C)C(F)(F)F [Compound 36, (2R,3S,4S,5R)-3-(3,4-difluoro-2-hydroxyphenyl)-N-(6-((R)-1,2-dihydroxyethyl)pyridin-3-yl)-4,5-dimethyl-5-(trifluoromethyl)tetrahydrofuran-2-carboxamide]
≥ 1000	CCOc1c([C@H]2C[C@@](C)(C(F)(F)F)O[C@@H]2C(=O)Nc2ccc([C@@H](O)CO)nc2)ccc(F)c1F (single isomer, unassigned) [Compound 34, rel-(2S,3R,5S)-N-(6-((R*)-1,2-dihydroxyethyl)pyridin-3-yl)-3-(2-ethoxy-3,4-difluorophenyl)-5-methyl-5-(trifluoromethyl)tetrahydrofuran-2-carboxamide]
≥ 1000	CCOc1c([C@H]2C[C@@](C)(C(F)(F)F)O[C@@H]2C(=O)Nc2ccc([C@H](O)CO)nc2)ccc(F)c1F (single isomer, unassigned) [Compound 32, rel-(2S,3R,5S)-N-(6-((S*)-1,2-dihydroxyethyl)pyridin-3-yl)-3-(2-ethoxy-3,4-difluorophenyl)-5-methyl-5-(trifluoromethyl)tetrahydrofuran-2-carboxamide]
10 to 100	COc1c([C@H]2[C@H](C(=O)Nc3ccc([C@H](C)O)nc3)O[C@@](C)(C(F)(F)F)[C@H]2C)ccc(F)c1F [Compound 85, (2R,3S,4S,5R)-3-(3,4-difluoro-2-methoxyphenyl)-N-(6-((S)-1-hydroxyethyl)pyridin-3-yl)-4,5-dimethyl-5-(trifluoromethyl)tetrahydrofuran-2-carboxamide]
10 to 100	COc1c([C@H]2[C@H](C(=O)Nc3cnc(CO)cn3)O[C@@](C)(C(F)(F)F)[C@H]2C)ccc(F)c1F [Compound 86, (2R,3S,4S,5R)-3-(3,4-difluoro-2-methoxyphenyl)-N-(5-(hydroxymethyl)pyrazin-2-yl)-4,5-dimethyl-5-(trifluoromethyl)tetrahydrofuran-2-carboxamide]
< 10	COc1c(C2C(C(=O)Nc3ccc(CO)nc3)OC(C)(C(F)(F)F)C2C)cccc1C(F)(F)F (single isomer, unassigned) [Compound 82]
≥ 1000	CCOc1c([C@@H]2[C@@H](C(=O)Nc3ccc([C@@H](O)CO)nc3)O[C@](C)(C(F)(F)F)[C@@H]2C)ccc(F)c1C (single isomer, unassigned) [Compound 41, rel-(2S,3R,4R,5S)—N-(6-((R*)-1,2-dihydroxyethyl)pyridin-3-yl)-3-(2-ethoxy-4-fluoro-3-methylphenyl)-4,5-dimethyl-5-(trifluoromethyl)tetrahydrofuran-2-carboxamide]
≥ 1000	CCOc1ccc([C@H]2[C@H](C(=O)Nc3ccc([C@@H](O)CO)nc3)O[C@@](C)(C(F)(F)F)[C@H]2C)c2c1OC(F)(F)O2 (single isomer, unassigned) [Compound 75, rel-(2R,3S,4S,5R)-N-(6-((R*)-1,2-dihydroxyethyl)pyridin-3-yl)-3-(7-ethoxy-2,2-difluorobenzo[d][1,3]dioxol-4-yl)-4,5-dimethyl-5-(trifluoromethyl)tetrahydrofuran-2-carboxamide]
< 10	CCOc1c([C@H]2[C@H](C(=O)Nc3ccc([C@@H](O)CO)nc3)O[C@@](C)(C(F)(F)F)[C@H]2C)ccc(F)c1C (single isomer, unassigned) [Compound 40, rel-(2R,3S,4S,5R)—N-(6-((R*)-1,2-dihydroxyethyl)pyridin-3-yl)-3-(2-ethoxy-4-fluoro-3-methylphenyl)-4,5-dimethyl-5-(trifluoromethyl)tetrahydrofuran-2-carboxamide]
10 to 100	CCOc1c([C@@H]2C[C@](C)(C(F)(F)F)O[C@H]2C(=O)Nc2ccc([C@@H](O)CO)nc2)ccc(F)c1F (single isomer, unassigned) [Compound 35, rel-(2R,3S,5R)-N-(6-((R*)-1,2-dihydroxyethyl)pyridin-3-yl)-3-(2-ethoxy-3,4-difluorophenyl)-5-methyl-5-(trifluoromethyl)tetrahydrofuran-2-carboxamide]
